# Results reported in publication PMC5840332, “Disease-associated missense mutations in GluN2B subunit alter NMDA receptor ligand binding and ion channel properties” (Nature Communications, 2018).
# What was measured:
# [1] = system: NMDAR-mediated EPSCs, hippocampal neurons; assay: NMDAR-mediated EPSCs in cultured hippocampal neurons, pharmacological characterisation; assay type: cell-based, rat
# Protocol: The impact of the GluN2B mutations was assessed on neuronal NMDARs by evoking network-driven NMDAR-mediated EPSCs in hippocampal neurons transfected with either wild-type or mutant GluN2B constructs. Hippocampal cultures were superfused with Krebs containing 10 μM CNQX and 20 μM bicuculline to block non-NMDA receptor and GABAA receptor-mediated currents, respectively. […] To obtain phase-locked EPSCs, a loose cell-attached patch electrode was used to serially stimulate presynaptic neurons yielding evoked EPSCs in postsynaptic neurons.
# The relative contributions of GluN2A and GluN2B subunits to NMDAR-mediated currents (at 13–15 DIV) was assessed using the selective antagonists, TCN213 (30 μM, for GluN2A) and ifenprodil (3 μM, for GluN2B).
# Dissected hippocampi were dissociated from E18 Sprague Dawley rat embryos using procedures and protocols that have been approved by the UK Home Office. They were dissociated into single cells using 0.1% w/v trypsin and serially triturated with flame-polished Pasteur pipettes. […] Neurons were transfected after 10 days in vitro (DIV) with either cDNAs for the GluN2B WT or mutants together with DsRed using Effectene (Qiagen) and recorded at 13–15 DIV.
# Cells were voltage clamped at −60 mV.
# NMDAR-mediated EPSCs were evoked by direct stimulation of single neighbouring neurons using a loose cell-attached patch electrode filled with Krebs and containing a bipolar stimulating electrode. […] For the pharmacological characterisation of NMDAR-mediated EPSCs, the selective antagonists ifenprodil (+)-hemitartrate (Santacruz biotechnology) and TCN213 (Tocris) were used.
# EPSCs were analysed offline using WinWCP (Strathclyde Electrophysiology Software, UK). Peak EPSC amplitude, the area of the EPSC (charge transfer) and EPSC decays were measured. The decay time constants (τ) were determined by fitting the EPSC decays with a double exponential function. The weighted time constant (τw) was calculated using the following equation, where A indicates the relative area of each time constant.3 τw=((A1.τ1)+(A2.τ2))∕A1+A2.
# [2] = target: GluN1–GluN2B^C461F (Homo sapiens, UniProt Q05586+Q13224, C461F); assay: Glutamate-activated whole-cell currents in HEK293 cells
# Protocol: (§1) We used the alternatively spliced GluN1–4b isoform for co-expression with GluN2B.
# (§2) All human NMDAR GluN1 (isoforms GluN1–4b[66]) and GluN2B constructs were cloned into the pRK5 expression vector (CMV promoter) with optimised Kozak sequences.
# (§3) Whole-cell currents (in HEK293 cells) and evoked NMDAR-mediated EPSCs (in cultured neurons) were recorded using an AxoPatch 200B amplifier (Molecular Devices, Sunnyvale, CA, USA). […] The experiments using Ca^2+ as the main external ion were performed using a ‘Ca^2+-solution’ containing (mM): 100 CaCl2, 5 HEPES adjusted to pH 7.4 with Ca(OH)2. […] Cells were voltage clamped at −60 mV.
# (§4) The rectification index (Ri) is measured from the current-voltage
# [3] = target: GluN1–GluN2B^N615I (Homo sapiens, UniProt Q05586+Q13224, N615I); assay: as above; conditions: 10 μM glycine
# Protocol: as §1, §2, §3, §4
# [4] = system: GluN1-GluN2BC456Y; assay: Glutamate-activated whole-cell currents in HEK293 cells (mutation screen); conditions: up to 3 mM glutamate
# Protocol: as §2, §3, §4
# [5] = target: GluN1–GluN2B^V618G (Homo sapiens, UniProt Q05586+Q13224, V618G); assay: Glutamate-activated whole-cell currents in HEK293 cells
# Protocol: as §1, §2, §3, §4
# [6] = target: GluN1-GluN2B L825V (Homo sapiens, UniProt Q05586+Q13224, L825V); assay: Glutamate-activated whole-cell currents in HEK293 cells (mutation screen); conditions: saturating glutamate, -30 mV
# Protocol: as §2, §3, §4
# [7] = system: GluN1-GluN2BA636P; assay: as above; conditions: up to 3 mM glutamate
# Protocol: as §2, §3, §4
# [8] = target: GluN1-GluN2B R540H (Homo sapiens, UniProt Q05586+Q13224, R540H); assay: as above; conditions: saturating glutamate, -30 mV
# Protocol: as §2, §3, §4
# [9] = target: GluN1-GluN2B R682C (Homo sapiens, UniProt Q05586+Q13224, R682C); assay: as above; conditions: saturating glutamate, -30 mV
# Protocol: as §2, §3, §4
# [10] = target: GluN1–GluN2B^WT (Homo sapiens, UniProt Q05586+Q13224); assay: Glutamate-activated whole-cell currents in HEK293 cells (concentration–response, current density, desensitisation)
# Protocol: as §1, §2, §3, §4
# [11] = target: GluN1–GluN2B^P553L (Homo sapiens, UniProt Q05586+Q13224, P553L); assay: Glutamate-activated whole-cell currents in HEK293 cells
# Protocol: as §1, §2, §3, §4
# [12] = system: GluN1-GluN2A diheteromers; parameters: method as in PMID 22022974; conditions: cited from earlier work
# [13] = saturating glutamate, 10 μM glycine, −30 mV
# [14] = 30 μM TCN213, 13–15 DIV untransfected neurons
# Sequence of GluN1–GluN2B^P553L (Q13224 27-1484 P553L, other chains not shown): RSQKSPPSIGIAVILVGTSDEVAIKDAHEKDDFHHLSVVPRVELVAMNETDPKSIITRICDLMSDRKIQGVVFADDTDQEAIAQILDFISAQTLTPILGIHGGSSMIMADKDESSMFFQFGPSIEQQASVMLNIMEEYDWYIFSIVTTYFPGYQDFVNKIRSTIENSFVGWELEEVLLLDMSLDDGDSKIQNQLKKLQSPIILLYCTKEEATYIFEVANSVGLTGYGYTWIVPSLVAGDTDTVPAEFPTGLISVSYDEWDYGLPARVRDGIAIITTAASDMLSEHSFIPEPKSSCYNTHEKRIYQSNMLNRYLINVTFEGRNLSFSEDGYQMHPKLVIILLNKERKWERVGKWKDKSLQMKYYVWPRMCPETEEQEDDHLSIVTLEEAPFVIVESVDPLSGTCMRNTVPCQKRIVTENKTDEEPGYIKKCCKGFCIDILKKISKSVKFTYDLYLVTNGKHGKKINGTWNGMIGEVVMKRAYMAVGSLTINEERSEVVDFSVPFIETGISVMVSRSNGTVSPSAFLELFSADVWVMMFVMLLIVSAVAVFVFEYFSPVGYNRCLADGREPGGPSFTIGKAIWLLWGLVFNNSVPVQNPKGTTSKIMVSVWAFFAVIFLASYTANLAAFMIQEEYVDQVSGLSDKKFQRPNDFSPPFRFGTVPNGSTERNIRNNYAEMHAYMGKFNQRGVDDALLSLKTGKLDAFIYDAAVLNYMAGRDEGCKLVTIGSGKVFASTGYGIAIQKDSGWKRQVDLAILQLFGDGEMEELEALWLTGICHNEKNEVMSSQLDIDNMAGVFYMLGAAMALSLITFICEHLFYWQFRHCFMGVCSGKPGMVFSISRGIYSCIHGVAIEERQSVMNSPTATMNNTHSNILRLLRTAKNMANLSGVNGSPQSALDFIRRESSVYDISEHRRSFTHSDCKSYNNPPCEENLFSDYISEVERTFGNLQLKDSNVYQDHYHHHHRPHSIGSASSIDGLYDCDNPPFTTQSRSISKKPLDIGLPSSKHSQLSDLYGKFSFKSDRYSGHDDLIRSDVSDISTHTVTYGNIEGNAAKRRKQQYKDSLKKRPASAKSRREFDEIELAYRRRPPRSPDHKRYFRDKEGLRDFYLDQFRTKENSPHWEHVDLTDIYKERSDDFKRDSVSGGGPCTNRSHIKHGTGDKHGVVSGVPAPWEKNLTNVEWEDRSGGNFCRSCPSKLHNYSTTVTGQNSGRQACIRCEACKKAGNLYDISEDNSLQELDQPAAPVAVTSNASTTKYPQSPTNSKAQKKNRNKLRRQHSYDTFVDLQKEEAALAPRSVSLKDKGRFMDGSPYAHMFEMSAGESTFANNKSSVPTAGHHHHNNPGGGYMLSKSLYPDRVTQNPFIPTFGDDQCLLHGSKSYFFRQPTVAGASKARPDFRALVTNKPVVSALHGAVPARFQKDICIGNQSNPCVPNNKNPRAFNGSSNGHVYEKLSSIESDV
# Sequence of GluN1–GluN2B^WT (Q13224 27-1484, other chains not shown): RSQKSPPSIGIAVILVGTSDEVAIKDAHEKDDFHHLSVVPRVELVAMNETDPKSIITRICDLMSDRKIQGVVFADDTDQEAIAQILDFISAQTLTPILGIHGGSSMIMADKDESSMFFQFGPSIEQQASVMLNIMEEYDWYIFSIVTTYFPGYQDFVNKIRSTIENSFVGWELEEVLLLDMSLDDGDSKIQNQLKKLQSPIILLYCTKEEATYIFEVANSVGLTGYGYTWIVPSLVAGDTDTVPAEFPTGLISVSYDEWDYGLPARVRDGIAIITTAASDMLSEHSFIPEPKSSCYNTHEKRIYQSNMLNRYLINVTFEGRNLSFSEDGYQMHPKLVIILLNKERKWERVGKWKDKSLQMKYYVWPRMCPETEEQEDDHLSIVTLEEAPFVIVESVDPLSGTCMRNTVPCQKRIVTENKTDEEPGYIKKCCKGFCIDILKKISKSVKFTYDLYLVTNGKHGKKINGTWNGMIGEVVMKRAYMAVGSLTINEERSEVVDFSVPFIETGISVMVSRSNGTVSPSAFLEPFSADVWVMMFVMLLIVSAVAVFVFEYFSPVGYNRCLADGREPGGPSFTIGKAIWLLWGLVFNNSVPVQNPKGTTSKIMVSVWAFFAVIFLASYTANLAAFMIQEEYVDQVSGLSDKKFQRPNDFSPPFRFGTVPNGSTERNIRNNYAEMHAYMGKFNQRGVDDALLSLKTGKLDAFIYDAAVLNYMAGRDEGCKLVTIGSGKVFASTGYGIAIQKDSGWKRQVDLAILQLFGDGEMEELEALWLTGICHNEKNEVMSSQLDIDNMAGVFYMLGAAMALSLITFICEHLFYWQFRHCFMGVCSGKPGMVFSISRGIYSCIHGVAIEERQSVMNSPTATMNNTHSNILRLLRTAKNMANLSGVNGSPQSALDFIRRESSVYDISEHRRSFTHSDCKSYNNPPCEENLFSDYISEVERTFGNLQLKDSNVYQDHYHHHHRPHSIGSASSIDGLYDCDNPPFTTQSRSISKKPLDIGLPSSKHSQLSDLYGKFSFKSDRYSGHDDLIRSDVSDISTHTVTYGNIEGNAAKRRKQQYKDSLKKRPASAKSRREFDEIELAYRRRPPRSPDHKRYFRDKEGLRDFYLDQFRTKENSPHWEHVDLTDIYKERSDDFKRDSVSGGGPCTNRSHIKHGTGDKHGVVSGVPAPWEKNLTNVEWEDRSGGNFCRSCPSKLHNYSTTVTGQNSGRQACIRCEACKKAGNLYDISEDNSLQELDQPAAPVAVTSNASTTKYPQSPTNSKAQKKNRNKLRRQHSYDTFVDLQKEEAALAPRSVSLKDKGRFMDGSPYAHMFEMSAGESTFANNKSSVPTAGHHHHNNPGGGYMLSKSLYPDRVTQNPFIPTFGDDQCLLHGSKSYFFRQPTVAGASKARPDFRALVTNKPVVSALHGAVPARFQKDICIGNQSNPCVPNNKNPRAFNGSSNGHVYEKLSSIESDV
# Sequence of GluN1–GluN2B^C461F (Q13224 27-1484 C461F, other chains not shown): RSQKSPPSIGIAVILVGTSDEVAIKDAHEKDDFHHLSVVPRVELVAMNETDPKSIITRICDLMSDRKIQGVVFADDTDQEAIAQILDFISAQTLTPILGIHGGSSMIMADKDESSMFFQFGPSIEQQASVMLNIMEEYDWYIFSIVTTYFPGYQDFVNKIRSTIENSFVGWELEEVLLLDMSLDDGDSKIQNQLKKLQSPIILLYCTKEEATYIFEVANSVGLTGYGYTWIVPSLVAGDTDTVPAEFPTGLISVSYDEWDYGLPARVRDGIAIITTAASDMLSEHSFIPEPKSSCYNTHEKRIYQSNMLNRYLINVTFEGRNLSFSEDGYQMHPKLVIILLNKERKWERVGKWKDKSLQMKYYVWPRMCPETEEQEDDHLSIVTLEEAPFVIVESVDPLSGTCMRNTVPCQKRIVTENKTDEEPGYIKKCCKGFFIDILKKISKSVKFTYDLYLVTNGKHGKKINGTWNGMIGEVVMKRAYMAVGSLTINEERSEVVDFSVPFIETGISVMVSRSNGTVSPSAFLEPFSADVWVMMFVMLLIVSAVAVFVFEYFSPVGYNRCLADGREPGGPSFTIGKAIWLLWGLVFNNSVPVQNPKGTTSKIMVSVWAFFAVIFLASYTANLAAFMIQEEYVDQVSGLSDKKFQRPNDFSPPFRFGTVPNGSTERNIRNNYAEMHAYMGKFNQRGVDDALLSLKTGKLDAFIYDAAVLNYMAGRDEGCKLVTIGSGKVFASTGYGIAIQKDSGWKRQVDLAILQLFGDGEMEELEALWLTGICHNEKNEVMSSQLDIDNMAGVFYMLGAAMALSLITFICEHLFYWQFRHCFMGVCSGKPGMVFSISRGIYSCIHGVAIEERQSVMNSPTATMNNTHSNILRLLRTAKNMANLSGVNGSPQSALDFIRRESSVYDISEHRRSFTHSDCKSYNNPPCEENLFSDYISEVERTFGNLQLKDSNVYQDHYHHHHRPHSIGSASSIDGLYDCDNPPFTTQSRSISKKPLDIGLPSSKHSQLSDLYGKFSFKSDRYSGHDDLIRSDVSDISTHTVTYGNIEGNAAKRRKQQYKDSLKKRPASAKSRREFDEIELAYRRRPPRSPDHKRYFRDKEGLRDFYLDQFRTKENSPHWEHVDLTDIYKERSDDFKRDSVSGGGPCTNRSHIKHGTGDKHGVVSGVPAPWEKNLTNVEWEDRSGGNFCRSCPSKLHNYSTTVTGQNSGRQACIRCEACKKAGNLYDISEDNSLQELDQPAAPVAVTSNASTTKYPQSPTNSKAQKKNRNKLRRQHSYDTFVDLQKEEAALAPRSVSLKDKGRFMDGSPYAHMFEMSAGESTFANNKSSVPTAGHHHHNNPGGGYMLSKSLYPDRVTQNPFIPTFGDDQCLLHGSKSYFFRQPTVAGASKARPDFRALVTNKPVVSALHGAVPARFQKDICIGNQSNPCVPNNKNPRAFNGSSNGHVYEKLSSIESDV
smiles,measurement,setting,value
N[C@@H](CCCP(=O)(O)O)C(=O)O [APV],Effect on spontaneous/evoked EPSCs,"[1]; 20 μM APV, 0 Mg^2+, 10 μM CNQX, 20 μM bicuculline",blocked
N[C@@H](CCC(=O)O)C(=O)O [glutamate],Hill slope (n) of glutamate concentration–response curve,[2]; 10 μM glycine,1.44 ± 0.03
same,Glutamate current density (maximal current/cell capacitance),"[2]; saturating glutamate, -30 mV",-6.49 ± 3.94 pA/pF
same,Reduction of glutamate potency compared to wild-type,[2]; vs GluN1–GluN2B WT,71 fold
same,Hill slope (n) of glutamate concentration–response curve,[3],1.27 ± 0.13
same,Glutamate current,[4],No glutamate current was detected
same,Hill slope (n) of glutamate concentration–response curve,[5]; 10 μM glycine,1.23 ± 0.12
same,Glutamate current density (maximal current/cell capacitance),"[5]; saturating glutamate, -30 mV",-17.55 ± 3.35 pA/pF
same,Glutamate current density (maximal current/cell capacitance),[6],-19.06 ± 3.65 pA/pF
same,Glutamate current,[7],No glutamate current was detected
same,Glutamate current density (maximal current/cell capacitance),[8],-30.31 ± 7.71 pA/pF
same,Glutamate current density (maximal current/cell capacitance),[9],-15.34 ± 2.56 pA/pF
same,Hill slope (n) of glutamate concentration–response curve,[10]; 10 μM glycine,1.45 ± 0.12
same,Glutamate current desensitisation decay τ,[10]; [13],21.17 ± 0.31 s
same,Glutamate current density (maximal current/cell capacitance),"[10]; saturating glutamate, -30 mV",-20.36 ± 4.54 pA/pF
same,Hill slope (n) of glutamate concentration–response curve,[11]; 10 μM glycine,0.89 ± 0.05
same,Glutamate current desensitisation decay τ,[11]; [13],420.3 ± 30.1 ms
same,Glutamate current density (maximal current/cell capacitance),"[11]; saturating glutamate, -30 mV",-15.31 ± 3.70 pA/pF
same,Reduction of glutamate potency compared to wild-type,[11]; vs GluN1–GluN2B WT,1.7 fold
O=C(CSc1nnc(NCc2ccccc2)s1)NCC1CCCCC1 [TCN213],IC50,[12],~30 µM
same,Prolongation of EPSC decay,[1]; [14],40%
same,Reduction of peak EPSC amplitude,[1]; [14],10%
